# Key:
# Type in all cases: cell-based
# [1] = test system: S. mutans (ATCC 25175); assay: Determination of the minimum bactericidal concentration (MBC); conditions: Streptococcus mutans, ATCC25175; against S. Mutans
# Description: (§1) A 20 mg/mL compound stock solution in BHI medium is prepared. In a 96-well plate, the compound solution is diluted serially (the concentration is halved at each step) to obtain the following final concentrations after addition of the bacteria suspension: 10 mg/mL; 5 mg/mL; 2.5 mg/mL; 1.25 mg/mL; 0.625 mg/mL; 0.31 mg/mL; 0.15 mg/mL; 0.08 mg/mL; 0.04 mg/mL; 0.02 mg/mL. Wells containing a mixture of penicillin and streptomycin antibiotics are used as a positive control. Compound-free medium is used as a growth control. A volume of bacterial suspension equal to 0.5*10^6 bacteria/mL is added to each well containing the compound and the controls. The dish is incubated at 37° C. for 24 hours. The lowest compound concentration at which no turbidity of the culture medium is evident is defined as MIC. For the calculation of MBC, aliquots equal to 50 μL are taken from the wells showing evident no turbidity of the medium and are plated on BHI agar plates for 48 hours. […] Bacterial suspensions taken from the positive control (growth medium only) and the negative control (growth medium with Ampicilin 100 μg/mL) are also seeded.
# (§2) In order to test the antibacterial properties of the compounds prepared in Examples 1-8, on colonies of S. mutans (ATCC 25175), a bacterium commonly found in the human oral cavity, a test was set up to determine the minimum inhibitory concentration (MIC) and the minimum bactericidal concentration (MBC) according to the “Determination of minimum inhibitory concentration (MIC)” methods and “Determination of minimum bactericidal concentration (MBC)” described above.
# [2] = test system: S. mutans (ATCC 25175); assay: Determination of the minimum inhibitory concentration (MIC); conditions: Streptococcus mutans, ATCC25175; against S. Mutans
# Description: (§3) A colony of bacterium taken from agar plate is inoculated in Brain Hearth Infusion medium (BHI) and grown overnight at 37° C. The next day, the bacteria are diluted in fresh medium containing the phenol red indicator, up to a density of 10^6 bacteria/mL.
# (§4) A stock solution of 2 mg/mL of compound is prepared in BHI medium containing phenol red.
# (§5) In a 96-well plate, the compound stock solution is diluted serially (the concentration is halved at each step) to obtain the following final concentrations after addition of the bacteria suspension: 1 mg/mL; 0.5 mg/mL; 0.25 mg/mL; 0.125 mg/mL; 0.065 mg/mL; 0.032 mg/mL; 0.016 mg/mL; 0.008 mg/mL; 0.004 mg/mL; 0.002 mg/mL; 0.001 mg/mL. A compound-free medium is used as a growth control. A volume of bacterial suspension equal to 0.5*10^6 bacteria/mL is added to each well containing the compound and the control. The dish is incubated at 37° C. for 24 hours. Bacterial growth in each well is detected by the phenol red, which turns from red to yellow following acidification of the medium induced by bacterial metabolism. The lowest concentration of the compound causing no evident color change corresponds to the MIC.
# as §2
# [3] = test system: bacteria grown on agar; assay: Determination of bacterial inhibition - agar diffusion test of primer formulations; conditions: for zone of inhibition at 1 % strength: 1% by weight of compound; for zone of inhibition at 5 % strength: 5% by weight of compound; for zone of inhibition at 10 % strength: 10% by weight of compound
# Source text: A test adapted from a commonly used method for determining the sensitivity of a bacterial strain to antibiotics in solution, known as Kirby-Bauer antibiotic testing or disc diffusion antibiotic sensitivity testing was used (Brown D F, Kothari D (1975), “Comparison of antibiotic discs from different sources”, J. Clin. Pathol. 28 (10): 779-83. Doi: 10.1136 /jcp.28.10.779). The test performed involves the use of discs imbued with a known concentration of the substance under examination that are placed on a layer of bacteria grown on agar. The diffusion of the bactericidal molecule from the disk into the agar causes the inhibition of bacterial growth in the area surrounding the disk itself where the molecule has spread with the formation of what are called zones of growth inhibition. The diameter of these inhibition zones (transparent circular regions in comparison to the bacterial film) is proportional to the antibacterial efficacy of the molecule to its concentration and to its diffusion ability in the medium.
# The bactericidal properties of the compounds according to Examples 1, 3, 5, 6 and 7 were tested in various primer-type preparations, using the method “Bacterial inhibition determination-Agar diffusion test” described above. The disk soaked in the tested primer formulation without addition of compounds according to Examples 1, 3, 5, 6 and 7 was used as a negative reference.
# For the tests, the following primer-type formulations were used, identified by the following codes: […]
# [4] = test system: S. Sanguis (ATCC 10556); assay: Determination of the minimum bactericidal concentration (MBC)
# Description: as §1
# (§6) The compounds according to Examples 1, 3, 5, 6, and 7 were tested on bacterial strains different from S. mutans with the same methods described above, obtaining the MIC and MBC values reported in Table 2.
# [5] = test system: S. Aureus (ATCC 25923); assay: as above
# Description: as §1, §6
# [6] = test system: E. coli (ATCC25922); assay: as above
# Description: as §1, §6
# [7] = test system: S. Mitis (ATCC 49456); assay: as above
# Description: as §1, §6
# [8] = test system: S. Sanguis (ATCC 10556); assay: Determination of the minimum inhibitory concentration (MIC)
# Description: as §3, §4, §5, §6
# [9] = test system: S. Aureus (ATCC 25923); assay: as above; conditions: Staphylococcus aureus, ATCC25923
# Description: as §3, §4, §5, §6
# [10] = test system: E. coli (ATCC25922); assay: as above; conditions: Escherichia coli
# Description: as §3, §4, §5, §6
# [11] = test system: S. Mitis (ATCC 49456); assay: as above; conditions: Streptococcus mitis, ATCC49456
# Description: as §3, §4, §5, §6
smiles,measurement,setting,value
C=C(C)C(=O)OCC[N+](C)(C)CCCCCCCCCCCC[N+](C)(C)CCOC(=O)C(=C)C [Example 2],MBC,[1],313 mg/L
same,MIC,[2],156 mg/L
C=C(C)C(=O)NCCC[N+](C)(C)CCCCCCCCCCCC[N+](C)(C)CCCNC(=O)C(=C)C.[Br-].[Br-] [Example 3],zone of inhibition at 1 % strength,[3]; primer L1A,8 mm
same,zone of inhibition at 5 % strength,[3]; primer L1A,11 mm
same,zone of inhibition at 10 % strength,[3]; primer L1A,13 mm
same,zone of inhibition at 1 % strength,[3]; primer L1B,0 mm
same,zone of inhibition at 5 % strength,[3]; primer L1B,7 mm
same,zone of inhibition at 10 % strength,[3]; primer L1B,10 mm
same,zone of inhibition at 1 % strength,[3]; primer L2A,6 mm
same,zone of inhibition at 5 % strength,[3]; primer L2A,7 mm
same,zone of inhibition at 10 % strength,[3]; primer L2A,10 mm
same,zone of inhibition at 1 % strength,[3]; primer L2B,6 mm
same,zone of inhibition at 5 % strength,[3]; primer L2B,7 mm
same,zone of inhibition at 10 % strength,[3]; primer L2B,10 mm
same,zone of inhibition at 1 % strength,[3]; primer R5A,6 mm
same,zone of inhibition at 5 % strength,[3]; primer R5A,6 mm
same,zone of inhibition at 10 % strength,[3]; primer R5A,8 mm
same,zone of inhibition at 1 % strength,[3]; primer R5B,0 mm
same,zone of inhibition at 5 % strength,[3]; primer R5B,0 mm
same,zone of inhibition at 10 % strength,[3]; primer R5B,8 mm
same,MCB,[4],0.62 mg/mL
same,MCB,[5],1.25 mg/mL
same,MCB,[6],1.25 mg/mL
same,MCB,[7],0.62 mg/mL
same,MBC,[1],310 mg/L
same,MIC,[2],150 mg/L
same,MIC,[8],620 mg/L
same,MIC,[9],625 mg/L
same,MIC,[10],1250 mg/L
same,MIC,[11],620 mg/L
C=C(C)C(=O)NCCC[N+](C)(C)CCCCCCCCCCCC[N+](C)(C)CCCNC(=O)C(=C)C.[F-].[F-] [Example 4],MBC,[1],156 mg/L
same,MIC,[2],156 mg/L
C=C(C)C(=O)OCC[N+](C)(C)Cc1ccc(C[N+](C)(C)CCOC(=O)C(=C)C)cc1.[Br-].[Br-] [Example 8],MBC,[1],2500 mg/L
same,MIC,[2],2500 mg/L
